Reference: US20220332695A1, “UREA DERIVATIVES AS CB1 ALLOSTERIC MODULATORS” (RTI INTERNATIONAL, priority 2019, published 2022)
“And” between values parts separate entries of the source, which are not always exact repeats. Equal values may be shown once. Read-outs that look alike come from different tables or passages of the source.

How the values were obtained:
[1] = Metabolic stability in rat liver microsomes; type: in vitro ADME
Procedure: Metabolic stability assessment: Compounds were incubated with rat liver microsomes at 37° C. for a total of 45 minutes. The reaction was performed at pH 7.4 in 100 mM potassium phosphate buffer containing 0.5 mg/mL of rat liver microsomal protein. Phase I metabolism was assessed by adding NADPH to a final concentration of 1 mM and collecting samples at time points 0, 5, 15, 30 and 45 minutes. All collected samples were quenched 1:1 with ice-cold stop solution (1 μM labetalol and 1 μM glyburide in acetonitrile) and centrifuged to remove precipitated protein. Resulting supernatants were further diluted 1:4 with acetonitrile:water (1:1). Samples were analyzed by LC/MS/MS and calculations for half-life, and in-vitro clearance were accomplished using Microsoft Excel (2007).

[2] = Kinetic solubility assessment; type: physicochemical; conditions: aqueous buffer, kinetic from dmso stock, phosphate buffer, 2 hours room temperature
Procedure: The solution was agitated on a VX-2500 multi-tube vortexer (VWR International, Radnor, Pa., United States of America) for 2 hours at room temperature. Following agitation, the sample was filtrated on a glass-fiber filter (1 μm) and the eluate was diluted 400-fold with a mixture of acetonitrile: water (1:1). On each experimental occasion, nicardipine and imipramine were assessed as reference compounds for low and high solubility, respectively. All samples were assessed in triplicate and analyzed by LC-MS/MS using electrospray ionization against standards prepared in the same matrix.

mouse CB1R = target: T1, mouse CB1R (Mus musculus, UniProt P47746); experiment: [35S]GTPγS binding assay in mouse cerebellum membranes; type: biochemical; conditions: for IC50: mouse cerebellum membrane, read-out: mCB1R GTPγS IC50
T1 construct: membranes (10 μg protein) from either ICR mouse cerebellum mice; from tissue; host or cells: cerebellum membranes of ICR mice
Procedure: (§1) [^35S]GTPγS Binding Assay: For receptor signaling, membranes (10 μg protein) from either ICR mouse cerebellum mice (6-8 weeks old; Enviga
(§2) Non-specific binding was determined by adding 30 μM unlabeled GTPyS. Concentration response curves for allosteric modulators were conducted in the presence of CP55,940 (100 nM or 1 μM) to calculate 1050 values.
(§3) For [^35S]GTPyS experiments, data were normalized to maximal CP55,940 (100 nM) stimulation in the absence of test compound (i.e., vehicle=100%).
Select compounds were evaluated in the CP55,940-induced [^35S]GTPyS binding assays using mouse cerebellum membrane at two CP55,940 concentrations, 100 nM and 1μM.

MDCK-MDR1 cells = experiment: Bidirectional MDCK-MDR1 permeability assay; type: in vitro ADME; conditions: MDCK-MDR1, 10 μM test article
Procedure: Permeability Assessment. Bidirectional MDCK-MDR1 permeability assay was performed by Paraza Pharma Inc. (Montreal, Canada). MDCK-mdr1 cells at passage 5 were seeded onto permeable polycarbonate supports in 12-well Costar Transwell plates and allowed to grow and differentiate for 3 days. On day 3, culture medium (DMEM supplemented with 10% FBS) was removed from both sides of the transwell inserts and cells were rinsed with warm HBSS. After the rinse step, the chambers were filled with warm transport buffer (HBSS containing 10 mM HEPES, 0.25% BSA, pH 7.4) and the plates were incubated at 37° C. for 30 min prior to TEER (Trans Epithelial Electric Resistance) measurements.
The buffer in the donor chamber (apical side for A-to-B assay, basolateral side for B-to-A assay) was removed and replaced with the working solution (10 μM test article in transport buffer). The plates were then placed at 37° C. under light agitation. At designated time points (30, 60 and 90 min), an aliquot of transport buffer from the receiver chamber was removed and replenished with fresh transport buffer. Samples were quenched with ice-cold ACN containing internal standard and then centrifuged to pellet protein. Resulting supernatants are further diluted with 50/50 ACN/H2O (H2O only for Atenolol) and submitted for LC-MS/MS analysis. Reported apparent permeability (Papp) values were calculated from single determination.
Atenolol and propranolol were tested as low and […] permeability references.
The apparent permeability (Papp, measured in cm/s) of a compound is determined according to the following formula […]: […]
where dQ/dt is the net rate of appearance in the receiver compartment; A is the area of the Transwell measured in cm^2 (1.12 cm^2); Ci is the initial concentration of compound added to the donor chamber; and 60 is the conversion factor for minute to second.

hCB1R [3] = target: T2, hCB1R (Homo sapiens, UniProt P21554); experiment: [35S]GTPγS binding assay in HEK cells stably expressing human CB1R; type: biochemical; set-up: expressed in transfected cells; host or cells: HEK (HEK293) cells, membranes; conditions: [CP] = 100 nM, mean (95% confidence interval), read-out: hCB1R [35S]GTPγS binding assay IC50
Procedure: as §1, §2, §3

hCB1R [4] = target: T2, hCB1R; experiment: Calcium mobilization assay, antagonist mode against CP55,940; type: cell-based; set-up: expressed in transfected cells; host or cells: CHO-RD-HGA16 cells (parental line from Molecular Devices); conditions: CHO cells expressing human CB1R; against CP55,940 (100 nM); mean ± SEM; read-out: hCB1R Calcium assay IC50
Procedure: Calcium Mobilization Assay: CHO-RD-HGA16 cells (Molecular Devices, San Jose, Calif., United States of America) stably expressing the human CB1 receptor were plated into 96-well black-walled assay plates at 25,000 cells/well in 100 pL of Ham's F12 (supplemented with 10% fetal bovine serum, 100 units of penicillin/streptomycin, and 100 µg/mL Normocin) and incubated overnight at 37° C., 5% CO2. Calcium 5 dye (Molecular Devices, San Jose, Calif., United States of America) was reconstituted according to the manufacturer's instructions. The reconstituted dye was diluted 1:40 in prewarmed (37° C.) assay buffer (1x HBSS, 20 mM HEPES, 2.5 mM probenecid, pH 7.4 at 37° C.). Growth medium was removed, and the cells were gently washed with 100 pL of prewarmed (37° C.) assay buffer. The cells were incubated for 45 min at 37° C., 5% CO2 in 200 pL of the diluted Calcium 5 dye solution. […] Serial dilutions of the test compounds were prepared at 10x the desired final concentration in 2.25% BSA/4.5% DMSO/4.5% EtOH/assay buffer. After the dye loading incubation period, the cells were pretreated with 25 pL of the test compound serial dilutions and incubated for 15 min at 37° C. After the pretreatment incubation period, the plate was read with a FLIPR Tetra (Molecular Devices, San Jose, Calif., United States of America). Calcium-mediated changes in fluorescence were monitored every 1 s over a 90 s time period, with the Tetra adding 25 pL of the CP55,940 EC80 concentration at the 10s time point (excitation/emission: 485/525 nm). Relative fluorescence units (RFU) were plotted against the log of compound concentrations. For agonist screens, the above procedure was followed except that cells were pretreated with 2.25% BSA/4.5% DMSO/4.5% EtOH/assay buffer and the Tetra added single concentration dilutions of the test compounds prepared at 10x the desired final concentration in 0.25% BSA/0.5% DMSO/0.5% EtOH/assay buffer. Test compound RFUs were compared to the CP55,940 Emax RFUs to generate % Emax values.
Data Analysis: For calcium mobilization experiments, data were fit to a three-parameter logistic curve to generate IC50 values (GraphPad Prism 6.0, Graphpad Software, San Diego, Calif., United States of America).

hCB1R [5] = target: T2, hCB1R; experiment: Intrinsic activity: basal [35S]GTPγS binding in the absence of CP55,940; type: biochemical; conditions: up to 10 μM
hCB1R [6] = target: T2, hCB1R; experiment: Real-time BRET CAMYEL cAMP assay in HEK293 cells expressing human CB1; type: cell-based; set-up: expressed in transfected cells; host or cells: HEK293 cells stably transfected with human CB1, transiently transfected with pcDNA3L-His-CAMYEL sensor; conditions: for IC50: [CP] = 100 nM, forskolin-stimulated cAMP
Procedure: cAMP Assay: The cAMP assay was performed as previously described. […] Briefly, forskolin (FSK)-stimulated cyclic adenosine monophosphate (cAMP) production was measured in real-time using a transfected bioluminescence resonance energy transfer (BRET) cAMP sensor. The plasmid encodes a cAMP binding domain (Epac1) flanked by yellow fluorescent protein (YFP) and Renilla Luciferase (RLuc) assay, the latter of which can oxidize coelenterazine H and produce a photon as a byproduct. When cAMP is bound to the Epac1 domain, it separates RLuc and YFP so only Rluc emits a photon at a wavelength of 460 nm. When cAMP is not bound, RLuc can excite YFP, emitting light at wavelength 535 nm. A plate reader measures both wavelengths and their ratio, 460/535, is calculated to quantify cAMP levels where increases in the ratio indicate increases in cAMP. Human Embryonic Kidney 293 (HEK293) cells stably transfected with the human cannabinoid type-1 (C131) were maintained at 37° C. at 5% CO2 and seeded in 100 mM dishes for transfection. The next day, cells were given fresh growth media and transfected with 5 pg of pcDNA3L-His-CAMYEL using linear polyethyleneimine (25 kDa, Polysciences, Warrington, Pennsylvania, United States of America) in 1:6 DNA:PEI (ATCC, Manassas, Virginia, United States of America) ratio. The next day, cells were lifted using 1 mM EDTA in PBS and spun down at 200xg for 5 min. The supernatant was removed, and cells were resuspended in growth media and plated on poly-D-lysine (Sigma Aldrich, St. Louis, Missouri, United States of America) coated white 96 well plates at 60,000 cells per well, filling 2 columns of 8 wells each per plate, i.e. 8 samples in duplicate per plate (Perkin Elmer, Waltham, Massachusetts,
United States of America). The following day, media was removed, cells were rinsed with PBS and buffers/reagents/drugs added as following: At 0 min, 175 of stimulation buffer (5 mg/ml bovine serum albumin in HBSS including Ca^2+ and Mg^2+); at 10 min, 25 μL of allosteric modulators added; at 15 min: 25 μL coelenterazine added (5 μM final); at 25 min, 25 μL of forskolin (10 final) with or without CP55,940 (100 nM final) added. […] Ratio of 460/535 is calculated for each time point and plotted across time and area under the curve analysis is conducted for each replicate and averaged by condition/day where each day serves as an independent experiment. Data were calculated as %FSK using the formula [(sample-basal)/(forskolin-basal)×100]. IC50 values were calculated from these normalized concentration-response data using Prism 6 (Graphpad Software, San Diego, Calif., United States of America) using 3 parameter non-linear regression. Data are plotted as mean of at least N=3 independent experiments either normalized to forskolin (concentration response data) or the calculated 460/535 BRET ratio (time course data).

T1 sequence (P47746 whole entry): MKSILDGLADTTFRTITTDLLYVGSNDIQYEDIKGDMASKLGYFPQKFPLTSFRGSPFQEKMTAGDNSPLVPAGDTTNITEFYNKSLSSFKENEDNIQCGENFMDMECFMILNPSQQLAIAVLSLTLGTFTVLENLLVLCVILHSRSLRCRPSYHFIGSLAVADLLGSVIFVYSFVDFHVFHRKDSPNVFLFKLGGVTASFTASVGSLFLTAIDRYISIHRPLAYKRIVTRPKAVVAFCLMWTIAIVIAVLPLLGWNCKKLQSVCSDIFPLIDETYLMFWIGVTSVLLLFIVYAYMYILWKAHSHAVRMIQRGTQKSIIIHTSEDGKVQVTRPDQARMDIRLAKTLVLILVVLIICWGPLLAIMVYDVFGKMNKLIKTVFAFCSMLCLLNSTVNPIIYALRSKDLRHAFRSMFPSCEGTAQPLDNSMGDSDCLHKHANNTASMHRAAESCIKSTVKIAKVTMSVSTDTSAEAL
T2 sequence (P21554 whole entry): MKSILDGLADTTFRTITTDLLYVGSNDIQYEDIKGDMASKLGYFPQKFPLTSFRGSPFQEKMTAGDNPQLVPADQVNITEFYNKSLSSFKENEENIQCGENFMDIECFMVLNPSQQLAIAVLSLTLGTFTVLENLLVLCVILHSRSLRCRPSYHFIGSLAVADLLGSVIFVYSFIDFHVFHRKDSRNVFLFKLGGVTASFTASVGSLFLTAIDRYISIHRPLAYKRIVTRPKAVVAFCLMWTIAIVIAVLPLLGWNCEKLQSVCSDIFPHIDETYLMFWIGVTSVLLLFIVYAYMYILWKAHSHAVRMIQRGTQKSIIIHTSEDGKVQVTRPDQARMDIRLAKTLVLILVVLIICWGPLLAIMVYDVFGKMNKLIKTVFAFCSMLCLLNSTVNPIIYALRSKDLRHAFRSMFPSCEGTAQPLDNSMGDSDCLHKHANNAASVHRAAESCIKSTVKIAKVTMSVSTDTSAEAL

SMILES	IC50 (mouse CB1R; [CP] = 100 nM)	IC50 (mouse CB1R; [CP] = 1 uM)	IC50 (hCB1R [3]) [nM]	IC50 (hCB1R [4]) [nM]	IC50 (hCB1R [6]) [nM]	other results
O=C(Nc1ccc(Cl)cc1)Nc1cccc(-c2cccc(N3CCCC3)n2)c1 [Compound 2, reference compound]	244 nM	127 nM				half-life ([1]; NADPH, mean ± SD): 13 min and 13.4 ± 4.1 min; Clearance ([1]; mean ± SD): 113.7 ± 34.4 µL/min/mg; solubility at 2 h [2]: < 0.5 µM; Papp A to B (MDCK-MDR1 cells): 2.6 ± 0 ×10^−6 cm/s; Papp B to A (MDCK-MDR1 cells): 2.2 ± 0.1 ×10^−6 cm/s
O=C(Nc1ccc(Cl)cc1)Nc1cc(-c2ccccc2)cs1 [Compound 12, 1-(4-Chlorophenyl)-3-(4-phenylthiophen-2-yl)urea]			667	37 ± 2		activity in [35S]GTPγS binding assay against mouse CB1R (in words) (mouse CB1R; compared with compound 2): weaker potency
O=C(Nc1ccc(Cl)cc1)Nc1ncc(-c2ccccc2)s1 [Compound 14, 1-(4-Chlorophenyl)-3-(5-phenyl-1,3-thiazol-2-yl)urea]			604	79 ± 10		inverse agonism (in words) (hCB1R [5]): some degree of inverse agonism
O=C(Nc1ccc(Cl)cc1)Nc1ccc(-c2ccc(F)cc2)s1 [Compound 18, 1-(4-Chlorophenyl)-3-[5-(4-fluorophenyl)thiophen-2-yl]urea]	174 nM	145 nM	537	40 ± 2		
O=C(Nc1ccc(Cl)cc1)Nc1ccc(-c2ccc(F)cc2F)s1 [Compound 20, 1-(4-Chlorophenyl)-3-[5-(2,4-difluorophenyl)thiophen-2-yl]urea]	138 nM	48 nM	84	22 ± 4	2290	half-life ([1]; pH 7.4, NADPH, mean ± SD, read-out: Half-life): 72 min; microsomal CLint ([1]; pH 7.4, mean ± SD, read-out: Clearance): 19.3 ± 1.6 µL/min/mg; solubility at 2 h [2]: < 0.5 µM
O=C(Nc1ccc(Cl)cc1)Nc1ccc(-c2ccccc2Cl)s1 [Compound 21, 1-(4-Chlorophenyl)-3-[5-(2-chlorophenyl)thiophen-2-yl]urea]	363 nM	204 nM	272	21 ± 2	1190	inverse agonism in cAMP assay (hCB1R [6]; concentrations up to 10 μM): displayed inverse agonism
O=C(Nc1ccc(Cl)cc1)Nc1ccc(-c2cc(Cl)cc(Cl)c2)s1 [Compound 25, 1-(4-Chlorophenyl)-3-[5-(3,5-dichlorophenyl)thiophen-2-yl]urea]	3310 nM	2400 nM	6330	92 ± 12	> 10000	
CC(=O)c1cccc(-c2ccc(NC(=O)Nc3ccc(Cl)cc3)s2)c1 [Compound 26, 3-[5-(3-Acetylphenyl)thiophen-2-yl]-1-(4-chlorophenyl)urea]			3430	108 ± 17		
COC(=O)c1cccc(-c2ccc(NC(=O)Nc3ccc(Cl)cc3)s2)c1 [Compound 27, Methyl 3-(5-{[(4-chlorophenyl)carbamoyl]amino}thiophen-2-yl)benzoate]			2350	345 ± 48		
CS(=O)(=O)c1cccc(-c2ccc(NC(=O)Nc3ccc(Cl)cc3)s2)c1 [Compound 28, 1-(4-Chlorophenyl)-3-[5-(3-methanesulfonylphenyl)thiophen-2-yl]urea]			3230	501 ± 58		
COc1ccccc1-c1ccc(NC(=O)Nc2ccc(Cl)cc2)s1 [Compound 29, 1-(4-Chlorophenyl)-3-[5-(2-methoxyphenyl)thiophen-2-yl]urea]			2020	58		
COc1cccc(-c2ccc(NC(=O)Nc3ccc(Cl)cc3)s2)c1 [Compound 30, 1-(4-Chlorophenyl)-3-[5-(3-methoxyphenyl)thiophen-2-yl]urea]	3020 nM	1620 nM	3280	61	6350	
COc1ccc(-c2ccc(NC(=O)Nc3ccc(Cl)cc3)s2)cc1 [Compound 31, 1-(4-Chlorophenyl)-3-[5-(4-methoxyphenyl)thiophen-2-yl]urea]	110 nM	120 nM	449	31 ± 2	1850	
Cc1cccc(-c2ccc(NC(=O)Nc3ccc(Cl)cc3)s2)c1 [Compound 32, 1-(4-Chlorophenyl)-3-[5-(3-methylphenyl)thiophen-2-yl]urea]			1180	48 ± 8		
CN(C)c1cccc(-c2ccc(NC(=O)Nc3ccc(Cl)cc3)s2)c1 [Compound 33, 1-(4-Chlorophenyl)-3-{5-[3-(dimethylamino)phenyl]thiophen-2-yl}urea]	3470 nM	3310 nM	5020	89 ± 14	> 10000	
O=C(Nc1ccc(Cl)cc1)Nc1ccc(-c2cccnc2)s1 [Compound 34, 1-(4-Chlorophenyl)-3-[5-(pyridin-3-yl)thiophen-2-yl]urea]			298	107 ± 6		
O=C(Nc1ccc(Cl)cc1)Nc1ccc(-c2ccncc2)s1 [Compound 35, 1-(4-Chlorophenyl)-3-[5-(pyridin-4-yl)thiophen-2-yl]urea]	287 nM and 204 nM	129 nM and 120 nM	298	79 ± 13	1800	inverse agonism (in words) (hCB1R [5]): some degree of inverse agonism
